Data published in US9055743B2, “Alpha, beta-unsaturated imines” (BAYER INTELLECTUAL PROPERTY GMBH, priority 2010, dated 2015).

Columns and labels:
Assay type in all cases: in vivo
[1] = system: Boophilus microplus strain Parkhurst, SP-resistant; experiment: Boophilus microplus test (DIP); settings: 100 ppm, after 7 days
Experimental: Boophilus microplus Test (DIP) Test Animals: Adult Fat Females of the Boophilus microplus Strain Parkhurst—SP-Resistant) Solvent: Dimethyl Sulphoxide
10 mg of active compound are dissolved in 0.5 ml of dimethyl sulphoxide. To produce a suitable formulation, the active compound solution is diluted with water to the particular desired concentration.
This active compound preparation is pipetted into tubes. 8-10 ticks are transferred into a further tube provided with holes. The tube is dipped into the active compound preparation, with all the ticks being wetted completely. After the liquid has run off, the ticks are transferred to filter discs in plastic dishes and kept in a climatized room. After 7 days, the activity is checked for deposition of fertile eggs. Eggs whose fertility is not visible from the outside are kept in glass tubes in a climatized cupboard until the larvae have hatched. An activity of 100% means that no tick has laid fertile eggs.

Lucilia cuprina larvae = experiment: Lucilia cuprina test (LUCICU); settings: 100 ppm, after 2 days
Outline: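 Horsemeat treated with compound (DMSO concentrate diluted in water) was populated with about 20 L. cuprina larvae. Percent kill was scored after 2 days, from 100% (all larvae dead) to 0% (none dead).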

[2] = system: larvae of the mustard beetle (Phaedon cochleariae); experiment: Phaedon test (PHAECO spray treatment); settings: 500 g/ha, spray, after 7 days; for pest or weed control at 500 g/ha: Phaedon cochleariae, 168 h, read-out: activity (beetle larvae killed)
Outline: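 Chinese cabbage leaf discs sprayed with compound formulated in acetone/dimethylformamide with alkylaryl polyglycol ether emulsifier, diluted in emulsifier-containing water to the desired concentration. After drying, discs were populated with mustard beetle larvae.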

[3] = system: greenhouse red spider mite (Tetranychus urticae); experiment: Tetranychus test; OP-resistant (TETRUR spray treatment); settings: 500 g/ha, spray, after 6 days; for pest or weed control at 500 g/ha: Tetranychus urticae, 144 h, read-out: activity (spider mites killed)
Outline: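 Bean leaf discs infested with all stages of OP-resistant Tetranychus urticae were sprayed with compound in acetone/DMF with alkylaryl polyglycol ether emulsifier, diluted in emulsifier-water. Mortality was scored after 6 days: 100% means all mites killed, 0% none.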

[4] = system: brown dog ticks (Rhipicephalus sanguineus, fully sensitive laboratory strain); experiment: Contact test against ticks in vitro (RHIPSA contact); settings: active compound concentration 4 g/ha
Experimental: Contact Test Against Ticks In Vitro (RHIPSA Contact)
An amount of 0.9 mg of active compound is weighed out, and 1 ml of acetone is added.
Of this acetone solution, either 250 μl are transferred directly into roll-necked test tubes or an aliquot is diluted with 4 parts of acetone 1:5. For its part, 250 μl of this dilution are pipetted into roll-necked test tubes, or the dilution is diluted further, etc., until the desired number of dilution steps is reached.
The roll-necked test tubes containing the solution of the active compound in acetone are immediately coated in a fume cupboard by 2 h of swing rotation at 30 rpm. After evaporation of the solvent, the active compound contained in the acetone gives, at the highest concentration tested, an active compound content of 500 g/ha (or […]) on the surface of the test tube.
5-10 Adult brown dog ticks (Rhipicephalus sanguineus, fully sensitive laboratory strain) are transferred into the test tubes prepared in this manner, and the test tubes are closed with a plastic roll-necked lid provided with fine holes.
The test tubes are stored vertically at room temperature and humidity for 24 or 48 h in the dark. After 24 and 48 h, the activity of the active compound applied is determined by comparison with an acetone-treated control. […]

[5] = system: bed bugs of the species Cimex lectularius; experiment: whole plant or invertebrate; settings: for mortality at 100 mg/m2: Cimex lectularius, read-out: activity (mortality in %)
Experimental: Cimex Test (CIMXLE Surface Treatment)
To produce a suitable preparation of the active compound, the active compound is dissolved in acetone (2 mg/ml). The active compound preparation is pipetted onto a glazed tile and, after drying, adult bed bugs of the species Cimex lectularius are placed onto the treated tile. The exposition time is 30 minutes.
Two hours after contact to the treated surface, the knock-down proportion of the test animals in % is determined
24 hours after contact to the treated surface, the mortality in % is determined. Here, 100% means that all bed bugs have been killed; 0% means that none of the bed bugs have been killed.

Row | Structure (SMILES) | activity (100% = no tick has laid fertile eggs) [1] | activity (kill in %) (Lucilia cuprina larvae) | activity (beetle larvae killed) [2] | activity (spider mites killed) [3] | pest or weed control at 500 g/ha [2] | Kill rate in % after 2 days [4] | pest or weed control at 500 g/ha [3] | mortality at 100 mg/m2 [5] | knock-down activity ([5]; 100 mg/m^2, two hours after contact, exposition 30 minutes)
1 | Cc1ccc(N=C2C(=CSc3ccc(C)cc3)CCc3ccccc32)cc1 [Example 1-28] | 100% | 100% | 100% | 100% |  |  |  |  | 
2 | Cc1ccc(N=C2C(=CSc3ccc(F)cc3)CSc3ccccc32)cc1 [Example 1-35] |  | 100% |  |  | 100% | 100% | 100% |  | 
3 | Cc1ccc(N=C2C(=CSc3ccc(F)cc3)CCc3cc(F)ccc32)cc1 [Example 1-16] | 100% | 100% |  |  | 100% |  | 100% | 90% | 
4 | Cc1ccc(N=C2C(=CSc3ccc(F)cc3)CCc3ccccc32)cc1 [Example 1-9] |  | 100% |  |  | 100% |  | 100% | 100% | 80%
5 | Cc1ccc(N=C2C(=CSc3ccc(F)cc3)C(C)c3ccccc32)cc1 (stereo not drawn) [Example 1-57] |  | 100% |  |  | 100% |  | 100% |  | 
